# From patent publication US20100272706A1, “ANTIVIRALS” (priority 2007, published 2010)
# Where two headings read alike, the source gives them in different places.
# Legend:
# Format in all cases: cell-based
# [1] = test system: vaccinia virus mature virions (EGFP-MV)
# [2] = test system: vaccinia virus mature virions (mYFP-MV)
# [3] = test system: vaccinia virus mature virions (MV entry)
# [4] = test system: MV-induced blebbing of HeLa cells; conditions: microscopy
# [5] = test system: vaccinia virus mature virions
# [6] = test system: vaccinia virus mature virions (mYFP-MV); remark: listed apart in the source
molecule,measurement,setting,value
O=c1c(-c2ccc(O)cc2)coc2cc(O)cc(O)c12 [genistein],inhibition of viral infection,[1],up to 82%
ANX5,MV binding to cells,[2],without affecting MV binding
same,viral binding,[2],no effect
same,infectivity,[1],no effect
same,inhibition of infection by masking of viral PS,[1],95%
O=C(Nc1cccc(Nc2cc(Nc3cccc(C(F)(F)F)c3)ncn2)c1)C1CC1 [EGFR inhibitor 324674],MV entry,[3],effectively blocks MV entry
COC[C@H]1OC(=O)c2coc3c2[C@@]1(C)C1=C(C3=O)[C@@H]2CCC(=O)[C@@]2(C)C[C@H]1OC(C)=O [wortmannin],inhibition of viral infection,[1],up to 63%
Cc1ccc2c(c1)C(=O)C1(O)CCN(c3ccccc3)C1=N2 (centres unmarked) [Blebbistatin],MV-induced bleb formation,[4],prevented formation of the blebs
same,MV-induced bleb formation,[4]; listed as blebbistatin,inhibited bleb-formation
same,inhibition of viral infection,[1],62%
phosphatidylserine [PS],fraction of original infectivity and plaque formation rescued,[5],90%
"CCN(c1nc(N)c(C(=O)N=C(N)N)nc1Cl)C(C)C [EIPA, 5-N-ethyl-N-isopropyl-amiloride]",MV-induced bleb formation,[4],inhibited bleb-formation
same,inhibition of viral infection,[1],90%
same,internalization of MV into FITC-dextran positive vacuoles,[6],prevented internalization
